Assay results published in patent publication US8993593B2, “N-(4-(6-fluoro-3,4-dihydroisoquinolin-2(1H)-yl)-2,6-dimethylphenyl)-3,3-dimethylbutanamide as potassium channel modulators” (Valeant Pharmaceuticals International, priority 2006, dated 2015).

Tests used:
[1] = Rotarod test (motor impairment, acute toxicity); details: CF-1, in vivo, oral; behavioral rotarod model, mouse
Experimental: Prior to MES testing, compound dosed mice are scrutinized for abnormal neurologic status as defined by motor impairment on a slowly turning (6 rpm) rotarod apparatus (Model 755, Series 8, IITC Life Sciences, Woodland Hills, Calif.). […] These measurements are done at the same time points as the MES assay. Untreated normal mice are able to maintain balance on the rotarod for at least one minute without falling. Median toxicity of a compound (TD50, the dose of a drug that results in motor impairment in 50% of animals) is determined.

[2] = system: rat MES model of epilepsy; experiment: Maximal electroshock seizure (MES) test, rat; assay type: in vivo; details: po; rat MES model, dosed orally 1 hour prior to testing; read-out: ED50, inhibition of seizures
From the text: The MES testing protocol is based on procedures established at the National Institute of Neurological Disorders and Stroke in conjunction with the Anticonvulsant Screening Program (ASP) at the University of Utah (White, H. S., Woodhead, J. H., Wilcox, K. S., Stables, J. P., Kupferberg, H. J and Wolf, H. H. 2002. “General Principles: Discovery and Preclinical Development of Antiepileptic Drugs,” in Antiepileptic Drugs, 5th Edition, R. H. Levy, ed.; R. H. Mattson, B. S. Meldrum, and E. Perucca. Philadelphia, Lippincott Williams & Wilkins.), The goal of the test rapid identification and characterization of the in vivo anticonvulsant activity of any compounds that have been shown active in PC-12 cellular based Rb^+ efflux assay.
Adult male CF-I albino mice (18-25 g, Charles River Laboratories) are exclusively used for in-house MES screen of compounds. Male Sprague-Dawley albino rats (100-125 g, Charles River Laboratories) are also used to test anticonvulsant compounds. Variability of test outcomes is reduced by using animals of the same sex, age, and weight. Animals are permitted to rest and recover from transit for at least 48 hr prior to experimentation. Animals are used for AED testing only once. In some instances, the animals may be anesthetized prior to blood collection and/or whole brain extraction for pharmacokinetic assay. All animals are maintained and handled as outlined in standard animal care guidelines.
In the experiments, testing compounds are prepared as suspensions in 0.5% methyl cellulose (Sigma, Cat #M0512, Viscosity 4000 cP at 20° C.) in water, regardless of solubility. Dry powder compounds are initially ground with a glass rod in a test tube in several drops of methyl cellulose to create a paste and to break down any large chunks. After several minutes of grinding, the volume of the suspension is increased to the final concentration desired. The suspension is then sonicated using a Branson sonicator model 3510 in a water bath at room temperature for 15 minutes. Compound suspensions are further vortexed prior to animal dosing. In some of the cases, DMSO is used to initially solubilize compounds in small volumes and then this solution is added to the 0.5% methyl cellulose solution, in order to create more even and less aggregated compound suspensions. The final concentration of DMSO is 3.75%, an amount with no apparent toxicity or neuroprotective effects in our usual rotarod and MES tests. Methyl cellulose/DMSO compound suspensions are identically prepared for intraperitoneally (i.p.) to mice or orally (p.o.) to rat dosing.
Initially the animals are weighed with an electronic scale and then marked. Data recording sheets are generated for each compound assessment. Mice or rats are dosed with the compound suspension at 0.01 mL/g of body weight. The typical injection volume range is between 180-250 μl for mice. Compounds are dosed by i.p. to mice using a 25 or 22 gauge needle, depending on the viscosity of the suspension. Rats are p.o. dosed using a flexible feeding tube, typically starting at a compound dose of 5 mg/kg.
A Rodent Electroconvulsive Stimulator (Model 200, Hamit-Darvin-Freesh, Snow Canyon Clinic, Ivins, Utah) is used for MES testing. A 60-Hz alternating current (50 mA for mice; 150 mA for rats) is delivered for 0.2 seconds through corneal electrodes to the mice. […] Animals are monitored for hind limb tonic extension as the end point for this test. Current delivery is recorded as a measure of overall seizure-induction potential. […]

KCNQ2/3 = KCNQ2/3 (Homo sapiens, UniProt O43525+O43526); experiment: Two-electrode voltage-clamp in Xenopus laevis oocytes, KCNQ2/3; assay type: cell-based
Experimental: Female Xenopus laevis extracted ovaries were purchased from eNASCO (LM00935MX, eNASCO Fort Atkinson, Wis.). […] Approximately 50 nl cRNA (about 50 ng) was injected for KCNQ1, KCNQ4, and KCNQ5 using a Nanoject microinjector (Drummond, Broomall, Pa., USA). For co-expression of KCNQ2 and KCNQ3 and of KCNQ1 and KCNE1, cRNA's were mixed in equal molar ratios before injection of approximately 50 nl. […] Oocytes were kept in Culture Barth solution at 19° C. which was changed daily and currents were recorded after 3 to 5 days.
KCNQ channel currents expressed in Xenopus laevis oocytes were recorded using a two-electrode voltage-clamp. […] The oocytes were placed in custom built perfusion chambers connected to a continuous flow system and impaled with a current electrode and a voltage-clamp electrode pulled from borosilicate glass on a Flaming/Brown Micropipette Puller (Sutter Instruments Co, Novato, Calif., USA).
All compounds were dissolved in DMSO to obtain concentrated stock solutions. On the day of electrophysiological experiments the stock solutions were thawed and diluted in recording solution to their final concentrations. The final DMSO concentration never exceeded 0.1%. Compound delivery was performed using a custom built multi-barrel apparatus connected to the flow system.
Data were acquired by means of an Axograph X software (Axograph Scientific, Sydney, AU) and analyzed using Graph Pad Prism (GraphPad Software Inc., CA, USA). […]
After steady channel current was recorded in the presence of Retigabine at its EC75, recorded oocyte was washed with the recording solution until its steady current returned to its normal level without the presence of any drugs. Then the channel steady current was recorded in the presence of the test compound at its EC75. The percent efficacy was then expressed as: % efficacy=(C2/C 1)×100 where C2 is the recorded steady current in the presence of follow-on compound at its EC75 and C1 is the recorded steady current in the presence of Retigabine at its EC75.

SMILES: Cc1cc(N2CCc3cc(F)ccc3C2)cc(C)c1NC(=O)CC(C)(C)C [compound A, N-[4-(6-fluoro-3,4-dihydro-1H-isoquinolin-2-yl)-2,6-dimethylphenyl]-3,3-dimethyl butanamide]
- TD50 at 2 h [1]: 12.6 mg/kg
- ED50 [2]: 1.1 mg/kg
- EC50 (KCNQ2/3): 350 nM
- KCNQ2/3 Efficacy Relative to Retigabine (%) (KCNQ2/3; oocyte expression, at EC75): 143%
